Assay results: patent US20250228861A1, “Cancer Treatments Using MTA-Cooperative PRMT5 Inhibitors” (AMGEN INC., priority 2022, published 2025)

Tests used:
Type in all cases: cell-based
Conditions in all cases: 6 days
H292 cells = experiment: Combination with paclitaxel, CellTiter-Glo viability, Fa and CalcuSyn CI;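 note: fa derived from raw luminescence, CI computed in CalcuSyn from drug concentrations and Fa, with CI under 0.9 indicating synergism and 0.9 to 1.1 nearly additive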
Protocol: (§1) Cell viability was measured by the CellTiter-Glo Luminescence assay. Raw luminescent values were converted to fraction affected (Fa) with the following equation:
(§2) Synergy analysis was performed using the CalcuSyn software to determine CI scores based on the drug concentrations used and corresponding Fa values.

A549 cells = experiment: as above;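 note: luminescent viability signal converted to fraction affected (Fa), and Fa with drug concentrations gives the CalcuSyn CI, where 0.9–1.1 is nearly additive and lower CI means stronger synergism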
Protocol: as §1, §2

MIAPACA2T2 cells [1] = experiment: Combination with gemcitabine, CellTiter-Glo viability, Fa and CalcuSyn CI
Protocol: as §1, §2

MIAPACA2T2 cells [2] = experiment: Combination with carboplatin, CellTiter-Glo viability, Fa and CalcuSyn CI
Protocol: as §1, §2

[3] = Compound G 0.437382 μM fixed + Paclitaxel 0.0005 μM
[4] = Compound G 0.437382 μM fixed + Paclitaxel 0.0007 μM
[5] = Compound G 0.437382 μM fixed + Paclitaxel 0.0009 μM
[6] = Compound G 0.437382 μM fixed + Paclitaxel 0.0011 μM
[7] = Compound G 0.437382 μM fixed + Paclitaxel 0.0015 μM
[8] = Compound G 0.437382 μM fixed + Paclitaxel 0.0019 μM
[9] = Compound G 0.437382 μM fixed + Paclitaxel 0.0025 μM
[10] = Compound G 0.831 μM fixed + Gemcitabine 0.001322 μM
[11] = Compound G 0.831 μM fixed + Gemcitabine 0.001784 μM
[12] = Compound G 0.831 μM fixed + Gemcitabine 0.002409 μM
[13] = Compound G 0.831 μM fixed + Gemcitabine 0.003252 μM
[14] = Compound G 0.831 μM fixed + Gemcitabine 0.00439 μM
[15] = Compound G 0.831 μM fixed + Gemcitabine 0.005926 μM
[16] = Compound G 0.831 μM fixed + Gemcitabine 0.008 μM
[17] = Compound G 0.831 μM fixed + Carboplatin 2.47793 μM
[18] = Compound G 0.831 μM fixed + Carboplatin 3.3452 μM
[19] = Compound G 0.831 μM fixed + Carboplatin 4.51602 μM
[20] = Compound G 0.831 μM fixed + Carboplatin 6.09663 μM
[21] = Compound G 0.831 μM fixed + Carboplatin 8.23045 μM
[22] = Compound G 0.831 μM fixed + Carboplatin 11.1111 μM
[23] = Compound G 0.831 μM fixed + Carboplatin 15 μM

Nc1nc2cnc(C(=O)N3CCOC[C@@H]3c3ccc(C(F)(F)F)cc3)cc2c2c1COC2 [Compound G]
Combination Fa (H292 cells; [3]): 0.6656 | Computed CI value (H292 cells; [3]): 0.92 | Combination Fa (H292 cells; [4]): 0.7749 | Computed CI value (H292 cells; [4]): 0.728 | Combination Fa (H292 cells; [5]): 0.8617 | Computed CI value (H292 cells; [5]): 0.658 | Combination Fa (H292 cells; [6]): 0.8929 | Computed CI value (H292 cells; [6]): 0.704 | Combination Fa (H292 cells; [7]): 0.9417 | Computed CI value (H292 cells; [7]): 0.749 | Combination Fa (H292 cells; [8]): 0.957 | Computed CI value (H292 cells; [8]): 0.85 | Combination Fa (H292 cells; [9]): 0.974 | Computed CI value (H292 cells; [9]): 0.94 | Combination Fa (A549 cells; [3]): 0.6362 | Computed CI value (A549 cells; [3]): 0.639 | Combination Fa (A549 cells; [4]): 0.6087 | Computed CI value (A549 cells; [4]): 0.863 | Combination Fa (A549 cells; [5]): 0.7048 | Computed CI value (A549 cells; [5]): 0.786 | Combination Fa (A549 cells; [6]): 0.7817 | Computed CI value (A549 cells; [6]): 0.77 | Combination Fa (A549 cells; [7]): 0.9048 | Computed CI value (A549 cells; [7]): 0.736 | Combination Fa (A549 cells; [8]): 0.95 | Computed CI value (A549 cells; [8]): 0.759 | Combination Fa (A549 cells; [9]): 0.9687 | Computed CI value (A549 cells; [9]): 0.869 | Combination Fa (MIAPACA2T2 cells [1]; [10]): 0.599 | Computed CI value (MIAPACA2T2 cells [1]; [10]): 1.117 | Combination Fa (MIAPACA2T2 cells [1]; [11]): 0.66 | Computed CI value (MIAPACA2T2 cells [1]; [11]): 1.094 | Combination Fa (MIAPACA2T2 cells [1]; [12]): 0.787 | Computed CI value (MIAPACA2T2 cells [1]; [12]): 0.962 | Combination Fa (MIAPACA2T2 cells [1]; [13]): 0.93 | Computed CI value (MIAPACA2T2 cells [1]; [13]): 0.793 | Combination Fa (MIAPACA2T2 cells [1]; [14]): 0.969 | Computed CI value (MIAPACA2T2 cells [1]; [14]): 0.825 | Combination Fa (MIAPACA2T2 cells [1]; [15]): 0.989 | Computed CI value (MIAPACA2T2 cells [1]; [15]): 0.826 | Combination Fa (MIAPACA2T2 cells [1]; [16]): 0.993 | Computed CI value (MIAPACA2T2 cells [1]; [16]): 0.981 | Combination Fa (MIAPACA2T2 cells [2]; [17]): 0.711 | Computed CI value (MIAPACA2T2 cells [2]; [17]): 0.599 | Combination Fa (MIAPACA2T2 cells [2]; [18]): 0.766 | Computed CI value (MIAPACA2T2 cells [2]; [18]): 0.521 | Combination Fa (MIAPACA2T2 cells [2]; [19]): 0.832 | Computed CI value (MIAPACA2T2 cells [2]; [19]): 0.437 | Combination Fa (MIAPACA2T2 cells [2]; [20]): 0.881 | Computed CI value (MIAPACA2T2 cells [2]; [20]): 0.402 | Combination Fa (MIAPACA2T2 cells [2]; [21]): 0.939 | Computed CI value (MIAPACA2T2 cells [2]; [21]): 0.322 | Combination Fa (MIAPACA2T2 cells [2]; [22]): 0.963 | Computed CI value (MIAPACA2T2 cells [2]; [22]): 0.313 | Combination Fa (MIAPACA2T2 cells [2]; [23]): 0.966 | Computed CI value (MIAPACA2T2 cells [2]; [23]): 0.396
